Experimental data reported in PMC10061512 (ACS Omega, 2023).

Experiments:
EeAChE = EeAChE (Electrophorus electricus, UniProt O42275); experiment: AChE inhibition and enzyme kinetics, Ellman assay; type: biochemical, electric eel
eqBChE = eqBChE (Equus caballus, UniProt P81908); experiment: BChE inhibition and enzyme kinetics, Ellman assay; type: biochemical, equine
amyloid β 1–42 peptide = amyloid β 1–42 peptide (Homo sapiens, UniProt P05067); experiment: Aβ-42 self-aggregation inhibition assay; type: biochemical; details: read-out: inhibition of self-aggregation of Aβ1–42 monomers
Sequence of amyloid β 1–42 peptide (P05067 672-713): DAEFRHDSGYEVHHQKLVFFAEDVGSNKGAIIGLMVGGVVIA

hBACE-1 [1] = target: T1, hBACE-1 (Homo sapiens, UniProt P56817); details: Lineweaver–Burk double-reciprocal plot
T1 sequence (P56817 46-501): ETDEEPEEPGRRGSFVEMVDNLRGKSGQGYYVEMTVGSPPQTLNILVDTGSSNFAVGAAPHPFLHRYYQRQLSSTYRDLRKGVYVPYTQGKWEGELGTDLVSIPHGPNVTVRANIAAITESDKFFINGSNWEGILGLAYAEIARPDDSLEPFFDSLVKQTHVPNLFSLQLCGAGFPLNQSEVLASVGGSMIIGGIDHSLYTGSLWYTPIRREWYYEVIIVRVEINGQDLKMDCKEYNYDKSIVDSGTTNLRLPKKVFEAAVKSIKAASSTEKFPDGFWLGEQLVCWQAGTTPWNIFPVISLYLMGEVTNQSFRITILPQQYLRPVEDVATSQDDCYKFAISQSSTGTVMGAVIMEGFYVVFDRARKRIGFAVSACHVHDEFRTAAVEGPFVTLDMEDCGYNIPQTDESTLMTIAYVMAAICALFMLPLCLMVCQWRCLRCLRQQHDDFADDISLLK

[2] = PAMPA–BBB
in vitro = details: pig, PAMPA, pH 7.4
hBACE-1 [3] = target: T1, hBACE-1; experiment: biochemical
[4] = Lineweaver–Burk double-reciprocal plot

Sequence of EeAChE (O42275 24-633): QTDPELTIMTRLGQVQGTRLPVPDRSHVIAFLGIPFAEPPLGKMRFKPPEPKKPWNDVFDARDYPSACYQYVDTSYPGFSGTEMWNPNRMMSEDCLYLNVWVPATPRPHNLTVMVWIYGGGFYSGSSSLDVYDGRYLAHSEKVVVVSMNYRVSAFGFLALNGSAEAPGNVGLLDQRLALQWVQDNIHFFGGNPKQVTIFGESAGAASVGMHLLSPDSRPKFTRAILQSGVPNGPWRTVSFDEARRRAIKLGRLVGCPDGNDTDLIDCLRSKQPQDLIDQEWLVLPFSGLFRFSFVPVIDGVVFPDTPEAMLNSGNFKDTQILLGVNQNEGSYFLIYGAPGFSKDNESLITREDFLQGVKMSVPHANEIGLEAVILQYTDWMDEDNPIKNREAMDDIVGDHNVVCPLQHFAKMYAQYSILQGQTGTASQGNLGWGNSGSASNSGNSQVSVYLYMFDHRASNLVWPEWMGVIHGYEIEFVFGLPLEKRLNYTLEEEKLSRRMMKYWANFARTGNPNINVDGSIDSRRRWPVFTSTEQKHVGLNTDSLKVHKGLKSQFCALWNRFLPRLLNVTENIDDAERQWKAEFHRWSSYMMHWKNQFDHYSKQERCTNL
Sequence of eqBChE (P81908 whole entry): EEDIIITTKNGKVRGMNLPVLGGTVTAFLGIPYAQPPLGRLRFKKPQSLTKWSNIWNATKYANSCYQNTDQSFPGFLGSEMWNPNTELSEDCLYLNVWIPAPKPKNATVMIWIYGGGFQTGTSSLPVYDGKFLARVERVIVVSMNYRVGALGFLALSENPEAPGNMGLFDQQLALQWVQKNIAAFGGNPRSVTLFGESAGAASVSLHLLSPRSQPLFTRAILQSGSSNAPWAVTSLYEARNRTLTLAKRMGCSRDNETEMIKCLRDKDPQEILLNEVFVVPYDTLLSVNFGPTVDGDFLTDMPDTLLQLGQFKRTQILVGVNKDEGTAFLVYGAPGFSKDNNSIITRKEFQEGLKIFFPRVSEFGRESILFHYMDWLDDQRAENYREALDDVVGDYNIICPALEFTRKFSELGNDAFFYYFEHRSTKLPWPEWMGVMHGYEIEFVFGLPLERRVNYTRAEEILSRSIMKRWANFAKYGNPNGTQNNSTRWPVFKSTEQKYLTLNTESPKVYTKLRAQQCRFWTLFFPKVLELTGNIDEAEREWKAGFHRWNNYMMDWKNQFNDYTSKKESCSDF

With `COc1cc(Cn2cc(COc3ccc4ccc(=O)oc4c3C(C)=O)nn2)cc(OC)c1` [10b, 8-Acetyl-7-((1-(3,5-dimethoxybenzyl)-1H-1,2,3-triazol-4-yl)methoxy)-2H-chromen-2-one] the Ki (EeAChE) was 0.27 µM, the “fold difference in AChE inhibition activity of 10b vs 19b” value (EeAChE; 10b vs 19b) was 20 fold and the IC50 (EeAChE; IC50 (μM) ± SD EeAChE, Ellman assay) was 2.57 ± 0.31 µM. The “mode of inhibition, AChE” value (EeAChE; [4]) was “noncompetitive”, the IC50 (eqBChE) was 3.26 ± 0.13 µM and the Ki (eqBChE) was 3.5 µM. For the same compound, the “mode of inhibition, BChE” value (eqBChE; [4]) was “mixed type”, the inhibition at 10 µM (amyloid β 1–42 peptide) was 37% and the “mode of inhibition, BACE-1” value (hBACE-1 [1]) was “mixed type”. For the same compound, the “prediction of CNS permeation” value [2] was “CNS+”, the Papp (in vitro) was 5.68 ± 1.1 ×10⁻⁶ cm/s and the Ki (hBACE-1 [3]) was 7 µM.
